Each structure is given as a SMILES string.

Test [1] has as its target human recombinant histamine H1 receptor (Homo sapiens, UniProt P35367). Briefly: Histamine H1 radioligand binding ([3H]Pyrilamine). The conditions noted are these: 1 μM; for inhibition at 1 µM: read-out: Binding data (Percentage Inhibition) Histamine Binding H1. The protocol:
To evaluate in radioligand binding assays the activity of compounds of the invention, human recombinant histamine H1 receptor expressed in Chinese hamster ovary (CHO) cells [De Backer, M. et al., Biochem. Biophys. Res. Comm. (1993), 197(3):1601] in a modified Tris-HCl buffer (50 mM Tris-HCl, pH 7.4, 2 mM MgCl2, 100 mM NaCl, 250 mM Sucrose) was used. Compounds of the invention were incubated with 1.2 nM [^3H]Pyrilamine for 180 min at 25° C. Non-specific binding was estimated in the presence of 1 μM pyrilamine. Receptor proteins were filtered and washed, the filters were then counted to determine [^3H]Pyrilamine specifically bound. Compounds were screened at 1 μM or lower, using 1% DMSO as vehicle. Biochemical assay results are presented as the percent inhibition of specific binding in Table 2.

Test [2] concerns the target T1, human recombinant histamine H2 receptor (Homo sapiens, UniProt P25021).
T1 construct: expressed in transfected cells; host or cells: Chinese hamster ovary (CHO) K1 cells
Kind of test: Histamine H2 radioligand binding (Aminopotentidine). As to conditions: read-out: Binding data (Percentage Inhibition) Histamine Binding H2. The protocol:
To evaluate in radioligand binding assays the activity of compounds of the invention, human recombinant histamine H2 receptor expressed in Chinese hamster ovary (CHO) K1 cells [Ruat, M., Proc. Natl. Acad. Sci. USA. (1990), 87(5):1658] in a 50 mM Phosphate buffer, pH 7.4 was used. Compounds of the invention were incubated with 0.1 nM […] for 120 min at 25° C. Non-specific binding was estimated in the presence of 3 μM Tiotidine. Receptor proteins were filtered and washed, the filters were then counted to determine […] specifically bound. Compounds were screened at 1 μM or lower, using 1% DMSO as vehicle. Biochemical assay results are presented as the percent inhibition of specific binding in Table 2.

Test [3] has as its target human recombinant dopamine D2L receptor (Homo sapiens, UniProt P14416). Briefly: Dopamine D2L radioligand binding ([3H]Spiperone). The protocol: To evaluate in radioligand binding assays the activity of compounds of the invention, human recombinant dopamine D2L receptor expressed in Chinese hamster ovary (CHO) cells [Grandy, D. K. et al., Proc. Natl. Acad. Sci. USA. (1989), 86:9762; Hayes, G. et al., Mol. Endocrinol. […] Compounds of the invention were incubated with 0.16 nM [^3H]Spiperone for 120 min at 25° C. Non-specific binding was estimated in the presence of 10 μM Haloperidol. Receptor proteins were filtered and washed, the filters were then counted to determine [^3H]Spiperone specifically bound. Compounds were screened at 1 μM or lower, using 1% DMSO as vehicle. Biochemical assay results are presented as the percent inhibition of specific binding in Table 3.

Test [4] concerns the target T2, human recombinant serotonin (5-Hydroxytryptamine) 5-HT2A receptor (Homo sapiens, UniProt P28223).
T2 construct: expressed in transfected cells; host or cells: Chinese hamster ovary (CHO-K1) cells
Kind of test: Serotonin 5-HT2A radioligand binding ([3H]Ketanserin). How it is done: (1997), 68:1998] in a 50 mM Tris-HCl buffer, pH 7.4, was used. Compounds of the invention were incubated with 0.5 nM [^3H]Ketanserin for 60 min at 25° C. Non-specific binding was estimated in the presence of 1 μM Mianserin. Receptor proteins were filtered and washed, the filters were then counted to determine [^3H]Ketanserin specifically bound. Compounds were screened at 1 μM or lower, using 1% DMSO as vehicle. Biochemical assay results are presented as the percent inhibition of specific binding in Table 4.

The target of test [5] is T3, human recombinant serotonin (5-Hydroxytryptamine) 5-HT2C receptor (Homo sapiens, UniProt P28335).
T3 construct: expressed in transfected cells; host or cells: Chinese hamster ovary (CHO-K1) cells
T3 sequence (P28335 33-458): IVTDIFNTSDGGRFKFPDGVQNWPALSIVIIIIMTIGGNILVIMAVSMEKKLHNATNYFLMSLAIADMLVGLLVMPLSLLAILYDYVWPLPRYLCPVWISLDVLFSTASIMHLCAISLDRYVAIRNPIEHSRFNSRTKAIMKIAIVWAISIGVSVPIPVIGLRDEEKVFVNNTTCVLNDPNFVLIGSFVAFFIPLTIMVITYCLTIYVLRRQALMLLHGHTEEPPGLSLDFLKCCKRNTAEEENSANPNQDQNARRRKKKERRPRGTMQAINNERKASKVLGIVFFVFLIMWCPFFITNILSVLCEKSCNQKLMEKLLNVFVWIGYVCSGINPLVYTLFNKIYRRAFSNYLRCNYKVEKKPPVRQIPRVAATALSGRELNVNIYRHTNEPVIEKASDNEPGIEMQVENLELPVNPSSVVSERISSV
Kind of test: Serotonin 5-HT2C radioligand binding ([3H]Mesulergine). How it is done:
(1997), 69:1449] in a modified Tris-HCl buffer (50 mM Tris-HCl, pH 7.4, 0.1% Ascorbic Acid, 10 μM Pargyline) was used. Compounds of the invention were incubated with 1 nM [^3H]Mesulergine for 60 min at 25° C. Non-specific binding was estimated in the presence of 1 μM Mianserin. Receptor proteins were filtered and washed, the filters were then counted to determine [^3H]Mesulergine specifically bound. Compounds were screened at 1 μM or lower, using 1% DMSO as vehicle. Biochemical assay results are presented as the percent inhibition of specific binding in Table 4.

Test [6] has as its target T4, human recombinant serotonin (5-Hydroxytryptamine) 5-HT6 receptor (Homo sapiens, UniProt P50406).
T4 construct: expressed in transfected cells; host or cells: human HeLa cells
Kind of test: Serotonin 5-HT6 radioligand binding ([3H]LSD). The protocol:
Compounds of the invention were incubated with 1.5 nM [3H]Lysergic acid diethylamide (LSD) for 120 min at 37° C. […] Receptor proteins were filtered and washed, the filters were then counted to determine [3H]LSD specifically bound. Compounds were screened at 1 μM or lower, using 1% DMSO as vehicle. Biochemical assay results are presented as the percent inhibition of specific binding in Table 4.

Test [7] deals with human recombinant serotonin (5-Hydroxytryptamine) 5-HT7 receptor (Homo sapiens, UniProt P34969). Kind of test: Serotonin 5-HT7 radioligand binding ([3H]LSD). How it is done: Compounds of invention were incubated with 5.5 nM [^3H]Lysergic acid diethylamide (LSD) for 2 h at 25° C. […] Receptor proteins were filtered and washed, the filters were then counted to determine [^3H]LSD specifically bound. Compounds were screened at 1 μM or lower, using 1% DMSO as vehicle. Biochemical assay results are presented as the percent inhibition of specific binding in Table 4.
Chain of human recombinant serotonin (5-Hydroxytryptamine) 5-HT7 receptor (P34969 whole entry): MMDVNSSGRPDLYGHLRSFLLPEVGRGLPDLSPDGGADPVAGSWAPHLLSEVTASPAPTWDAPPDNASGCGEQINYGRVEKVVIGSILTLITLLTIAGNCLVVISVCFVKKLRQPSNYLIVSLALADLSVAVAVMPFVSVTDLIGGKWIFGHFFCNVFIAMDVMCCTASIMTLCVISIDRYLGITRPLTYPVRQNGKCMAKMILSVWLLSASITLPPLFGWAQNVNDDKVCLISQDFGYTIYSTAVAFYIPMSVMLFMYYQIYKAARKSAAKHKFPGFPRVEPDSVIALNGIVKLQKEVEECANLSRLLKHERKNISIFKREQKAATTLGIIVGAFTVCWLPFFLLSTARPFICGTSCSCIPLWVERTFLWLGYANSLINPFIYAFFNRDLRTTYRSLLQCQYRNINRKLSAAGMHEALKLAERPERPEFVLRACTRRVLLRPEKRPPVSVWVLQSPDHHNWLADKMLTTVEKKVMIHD

Test [8] addresses T5, human recombinant adrenergic α2B receptor (Homo sapiens, UniProt P18089).
T5 construct: expressed in transfected cells; host or cells: Chinese hamster ovary (CHO-K1) cells
T5 sequence (P18089 1-450): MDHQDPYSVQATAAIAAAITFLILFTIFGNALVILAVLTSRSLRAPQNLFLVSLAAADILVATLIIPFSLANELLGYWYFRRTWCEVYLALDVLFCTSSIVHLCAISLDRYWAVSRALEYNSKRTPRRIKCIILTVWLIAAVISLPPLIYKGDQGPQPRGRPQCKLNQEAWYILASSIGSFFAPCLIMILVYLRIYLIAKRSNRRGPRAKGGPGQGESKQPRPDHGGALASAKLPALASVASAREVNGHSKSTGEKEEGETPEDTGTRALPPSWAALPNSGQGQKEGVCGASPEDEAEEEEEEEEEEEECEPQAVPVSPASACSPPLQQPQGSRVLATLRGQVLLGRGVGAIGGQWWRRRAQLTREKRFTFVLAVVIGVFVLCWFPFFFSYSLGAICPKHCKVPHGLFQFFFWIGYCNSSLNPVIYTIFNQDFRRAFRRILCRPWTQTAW
Briefly: Adrenergic α2B radioligand binding ([3H]Rauwolscine). As to conditions: 0.1 μM ligand conc. The protocol:
To evaluate in radioligand binding assays the activity of compounds of the invention, human recombinant adrenergic α2B receptor expressed in Chinese hamster ovary (CHO-K1) cells [Uhlen, S. et al., Eur. J. Pharmacol. (1998), 343(1):93] in a modified Tris-HCl buffer (50 mM Tris-HCl, pH 7.4, 12.5 mM MgCl2, 1 mM EDTA, 0.2% BSA) was used. Compounds of the invention were incubated with 2.5 nM [^3H]Rauwolscine for 60 min at 25° C. Non-specific binding was estimated in the presence of 10 μM Prozosin. Receptor proteins were filtered and washed, the filters were then counted to determine [^3H]Rauwolscine specifically bound. Compounds were screened at 1 μM or lower, using 1% DMSO as vehicle. Compounds of the invention were tested in this biochemical assay. Biochemical assay results for representative compounds were presented as the percent inhibition of specific binding in Table 3.

Chain of human recombinant dopamine D2L receptor (P14416 whole entry): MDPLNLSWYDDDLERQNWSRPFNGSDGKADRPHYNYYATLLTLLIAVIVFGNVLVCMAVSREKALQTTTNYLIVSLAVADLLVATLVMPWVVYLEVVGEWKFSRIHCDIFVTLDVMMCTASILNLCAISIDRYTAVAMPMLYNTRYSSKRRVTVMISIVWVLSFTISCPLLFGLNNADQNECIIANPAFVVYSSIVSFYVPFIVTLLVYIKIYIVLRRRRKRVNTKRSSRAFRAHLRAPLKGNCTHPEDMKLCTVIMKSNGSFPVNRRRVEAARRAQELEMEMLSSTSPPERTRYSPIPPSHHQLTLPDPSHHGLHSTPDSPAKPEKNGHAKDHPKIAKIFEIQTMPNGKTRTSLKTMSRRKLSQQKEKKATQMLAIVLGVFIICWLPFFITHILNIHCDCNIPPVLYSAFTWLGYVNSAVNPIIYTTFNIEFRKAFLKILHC
T2 sequence (P28223 whole entry): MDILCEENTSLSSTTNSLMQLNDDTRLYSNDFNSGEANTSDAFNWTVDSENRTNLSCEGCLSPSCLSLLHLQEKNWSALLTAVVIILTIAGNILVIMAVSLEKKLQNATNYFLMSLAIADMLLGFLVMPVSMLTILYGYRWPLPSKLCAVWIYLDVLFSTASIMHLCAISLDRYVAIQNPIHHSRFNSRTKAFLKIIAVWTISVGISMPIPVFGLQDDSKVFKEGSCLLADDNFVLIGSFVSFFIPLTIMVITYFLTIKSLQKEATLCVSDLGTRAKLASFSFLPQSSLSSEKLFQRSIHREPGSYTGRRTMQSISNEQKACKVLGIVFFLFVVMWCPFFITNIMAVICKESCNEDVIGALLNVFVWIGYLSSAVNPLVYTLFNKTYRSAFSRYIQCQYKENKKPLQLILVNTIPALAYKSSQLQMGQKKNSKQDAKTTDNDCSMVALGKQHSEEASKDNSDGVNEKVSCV
T4 sequence (P50406 whole entry): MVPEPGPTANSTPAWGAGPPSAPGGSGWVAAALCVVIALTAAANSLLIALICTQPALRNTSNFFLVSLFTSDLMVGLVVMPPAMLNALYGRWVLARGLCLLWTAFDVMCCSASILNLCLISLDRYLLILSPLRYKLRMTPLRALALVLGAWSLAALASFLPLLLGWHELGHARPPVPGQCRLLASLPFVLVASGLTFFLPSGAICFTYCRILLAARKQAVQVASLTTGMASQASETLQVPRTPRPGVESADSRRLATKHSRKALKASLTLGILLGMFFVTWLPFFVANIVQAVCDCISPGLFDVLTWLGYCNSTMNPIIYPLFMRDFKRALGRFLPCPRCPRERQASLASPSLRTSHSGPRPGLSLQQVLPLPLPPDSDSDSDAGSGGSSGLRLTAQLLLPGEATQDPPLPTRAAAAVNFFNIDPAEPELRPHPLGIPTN
Chain of human recombinant histamine H1 receptor (P35367 whole entry): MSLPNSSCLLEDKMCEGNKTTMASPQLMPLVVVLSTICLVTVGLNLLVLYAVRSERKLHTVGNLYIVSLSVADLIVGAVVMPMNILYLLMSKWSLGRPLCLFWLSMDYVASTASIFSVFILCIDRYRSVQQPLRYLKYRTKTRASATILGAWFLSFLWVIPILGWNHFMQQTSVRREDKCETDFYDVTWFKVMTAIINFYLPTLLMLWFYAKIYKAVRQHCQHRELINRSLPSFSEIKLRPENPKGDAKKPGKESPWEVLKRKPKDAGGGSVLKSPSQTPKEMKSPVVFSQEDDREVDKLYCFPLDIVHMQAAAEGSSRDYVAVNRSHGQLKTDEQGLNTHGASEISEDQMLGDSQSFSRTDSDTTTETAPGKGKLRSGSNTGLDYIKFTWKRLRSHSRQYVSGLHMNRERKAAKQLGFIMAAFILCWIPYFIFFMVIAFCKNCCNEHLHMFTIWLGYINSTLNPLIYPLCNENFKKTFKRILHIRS
T1 sequence (P25021 whole entry): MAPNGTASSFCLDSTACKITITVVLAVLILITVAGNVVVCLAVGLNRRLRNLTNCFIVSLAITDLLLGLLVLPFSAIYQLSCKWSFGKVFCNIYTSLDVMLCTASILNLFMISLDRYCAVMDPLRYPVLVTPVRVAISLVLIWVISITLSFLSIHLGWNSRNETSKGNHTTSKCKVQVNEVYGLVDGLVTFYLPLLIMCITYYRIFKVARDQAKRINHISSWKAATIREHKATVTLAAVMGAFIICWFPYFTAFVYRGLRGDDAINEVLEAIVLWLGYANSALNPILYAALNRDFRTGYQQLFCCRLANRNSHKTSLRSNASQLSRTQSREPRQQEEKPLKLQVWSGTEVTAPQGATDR

As a reminder, the inhibition is the percentage by which the read-out fell short of the control. Consider `CC(=Cn1c2c(c3cc(C)ccc31)C1CCCCN1CC2)c1ccc(F)cc1` (stereo in doubt) [Compound 6, (E)-8-(2-(4-fluorophenyl)prop-1-enyl)-11-methyl-1,2,3,4,6,7,8,12c-octahydroindolo[3,2-a]quinolizine], for which the results for the inhibition at 1 µM in test [1] and in test [2] were 28% and 67%, respectively. In test [3] (1 μM ligand conc.), the “Percent Inhibition of ligand binding Dopamine D2L” value is 94%. For the same compound, the “Percent Inhibition of ligand binding Serotonin 5-HT2A” value in test [4] (1 μM ligand concentration) is 99%. Moreover, the “Percent Inhibition of ligand binding Serotonin 5-HT2C” value in test [5] (1 μM ligand concentration) is listed as 94%. The “Percent Inhibition of ligand binding Serotonin 5-HT6” value in test [6] (1 μM ligand concentration) was found to be 105%. The “Percent Inhibition of ligand binding Serotonin 5-HT7” value in test [7] (1 μM ligand concentration) is recorded as 92%.

For `CC(=Cn1c2c(c3cc(C)ccc31)CN1CCCC1C2)c1ccc(F)cc1` (stereo in doubt) [Compound 3, (E)-10-(2-(4-fluorophenyl)prop-1-enyl)-7-methyl-2,3,5,10,11,11a-hexahydro-1H-indolizino [7,6-b]indole], the results for the inhibition at 1 µM in test [1] and in test [2] were 88% and 97%, respectively. Further, in test [3] (1 μM ligand conc.), the “Percent Inhibition of ligand binding Dopamine D2L” value worked out at 11%. Besides, the “Percent Inhibition of ligand binding Serotonin 5-HT2A” value in test [4] (1 μM ligand concentration) was 90%. The “Percent Inhibition of ligand binding Serotonin 5-HT2C” value in test [5] (1 μM ligand concentration) was 99%. In addition, the “Percent Inhibition of ligand binding Serotonin 5-HT6” value in test [6] (1 μM ligand concentration) is on record as 101%. Moreover, the “Percent Inhibition of ligand binding Serotonin 5-HT7” value in test [7] (1 μM ligand concentration) came to 94%.

With `CC(=Cn1c2c(c3cc(C)ccc31)C1CCCN1CC2)c1ccc(F)cc1` (stereo in doubt) [Compound 4, (E)-7-(2-(4-fluorophenyl)prop-1-enyl)-10-methyl-2,3,5,6,7,11c-hexahydro-1H-indolizino[7,8-b]indole], in test [1], the “Binding data (Percentage Inhibition) Histamine Binding H1” value came out at 53%. Further, the inhibition at 1 µM in test [1] amounted to 41%; in test [2] it was 75%. The entries for the “Percent Inhibition of ligand binding Dopamine D2L” value in test [3] (0.1 μM ligand conc.) and in test [3] (1 μM ligand conc.) were 59% and 90%, respectively. For the same compound, the “Percent Inhibition of ligand binding Serotonin 5-HT2A” value in test [4] (0.1 μM ligand concentration) was 87%; in test [4] (1 μM ligand concentration) it was 99%. For the same compound, the entries for the “Percent Inhibition of ligand binding Serotonin 5-HT2C” value in test [5] (0.1 μM ligand concentration) and in test [5] (1 μM ligand concentration) were 88% and 99%, respectively. Besides, the “Percent Inhibition of ligand binding Serotonin 5-HT6” value came out at 100% in test [6] (0.1 μM ligand concentration) and 103% in test [6] (1 μM ligand concentration). Moreover, the “Percent Inhibition of ligand binding Serotonin 5-HT7” value in test [7] (1 μM ligand concentration) is given as 101%.

Regarding `CC(=Cn1c2c(c3cc(C)ccc31)CN1CCCCC1C2)c1ccc(F)cc1` (stereo in doubt) [Compound 5, (E)-5-(2-(4-fluorophenyl)prop-1-enyl)-2-methyl-5,6,6a,7,8,9,10,12-octahydroindolo[2,3-b]quinolizine], the inhibition at 1 µM in test [1] worked out at 76%; in test [2] it was 97%. Besides, the “Percent Inhibition of ligand binding Dopamine D2L” value in test [3] (1 μM ligand conc.) was found to be 28%. In addition, the “Percent Inhibition of ligand binding Serotonin 5-HT2A” value in test [4] (1 μM ligand concentration) is reported as 98%. For the same compound, the “Percent Inhibition of ligand binding Serotonin 5-HT2C” value in test [5] (1 μM ligand concentration) is reported as 92%. In addition, the “Percent Inhibition of ligand binding Serotonin 5-HT6” value in test [6] (1 μM ligand concentration) was found to be 96%. Further, the “Percent Inhibition of ligand binding Serotonin 5-HT7” value in test [7] (1 μM ligand concentration) stood at 97%.

Take `Cc1cnc2c(c1)c1c(n2CC(=O)N2CCCCC2)CC2CCCN2C1` (centres unmarked) [Compound 42, 2-(3-methyl-8,9,9a,10-tetrahydro-5H-pyrido[3′,2′:4,5]pyrrolo[3,2-f]indolizin-11(7H)-yl)-1-(piperidin-1-yl)ethanone]: in test [8], the “Percent Inhibition of ligand binding Adrenergic α2B” value stood at 3%. Moreover, the “Percent Inhibition of ligand binding Serotonin 5-HT2A” value in test [4] (0.1 μM ligand concentration) was found to be 1%. The “Percent Inhibition of ligand binding Serotonin 5-HT6” value in test [6] (0.1 μM ligand concentration) was determined as 2%. The “Percent Inhibition of ligand binding Serotonin 5-HT7” value in test [7] (0.1 μM ligand concentration) was −1%.

Consider `Cc1cnc2c(c1)c1c(n2CC(=O)N2CCCCC2)CCN2CCCC12` (centres unmarked) [Compound 41, 2-(10-methyl-2,3,5,6-tetrahydro-1H-pyrido[3′,2′:4,5]pyrrolo[2,3-g]indolizin-7(11cH)-yl)-1-(piperidin-1-yl)ethanone], for which the “Percent Inhibition of ligand binding Adrenergic α2B” value in test [8] amounted to 14%. Moreover, the “Percent Inhibition of ligand binding Serotonin 5-HT2A” value in test [4] (0.1 μM ligand concentration) was −2%. Besides, the “Percent Inhibition of ligand binding Serotonin 5-HT6” value in test [6] (0.1 μM ligand concentration) came to 8%. In test [7] (0.1 μM ligand concentration), the “Percent Inhibition of ligand binding Serotonin 5-HT7” value is on record as −5%.

These data come from patent US9045482B2, “Pyrido[4,3-B]indoles and methods of use” (Medivation Technologies, Inc., priority 2009, dated 2015).
